The record followed here is patent US5597835A, “Acyl CoA:cholesterol acyltransferase inhibitors” (Korea Institute of Science and Technology, priority 1993, dated 1997).

The target of series [1] is T1, acyl CoA:cholesterol acyltransferase (ACAT) (Rattus norvegicus, UniProt Q7TQM4).
T1 construct: microsomal enzyme (10 mg/ml of protein) derived from rat liver tissue; from tissue; host or cells: rat liver microsomes
T1 sequence (Q7TQM4 1-524): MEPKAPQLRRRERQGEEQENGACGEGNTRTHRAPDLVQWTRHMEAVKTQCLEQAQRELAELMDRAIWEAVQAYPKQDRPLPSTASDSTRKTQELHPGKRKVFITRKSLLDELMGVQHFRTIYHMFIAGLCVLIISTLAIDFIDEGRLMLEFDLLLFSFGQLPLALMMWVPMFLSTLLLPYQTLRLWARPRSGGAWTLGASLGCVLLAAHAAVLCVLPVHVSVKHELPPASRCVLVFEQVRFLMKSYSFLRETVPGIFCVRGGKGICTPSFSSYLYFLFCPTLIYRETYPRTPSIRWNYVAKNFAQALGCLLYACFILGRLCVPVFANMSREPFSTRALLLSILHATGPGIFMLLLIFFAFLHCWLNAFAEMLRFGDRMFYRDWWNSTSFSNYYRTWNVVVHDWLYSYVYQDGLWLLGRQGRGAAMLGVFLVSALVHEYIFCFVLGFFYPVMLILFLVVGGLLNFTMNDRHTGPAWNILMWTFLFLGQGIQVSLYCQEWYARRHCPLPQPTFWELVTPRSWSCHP
The experiment in a line: ACAT inhibiting activity (modified method of Tabas et al.; [1-14C] oleoyl-CoA, rat liver microsomal enzyme). It is filed as biochemical. Particulars: 10 μM [1-14C] oleoyl-CoA, pH 7.4, 37° C., 15 minutes, read-out: IC50 (inhibitor concentration which reduces the activity of ACAT by 50%). As to the method:
ACAT activity was determined as follows in accordance with a modified method of Tabas et al. described in J. Biol. Chem., 261, 3147-3154 (1986).
10 μl of sample, 4.0 μl of microsomal enzyme (10 mg/ml of protein) derived from rat liver tissue, 20 μl of analysis buffer(0.5M KH2 PO4, 10 mM dithiothreitol (DTT), pH 7.4), 15 μl of 40 mg/ml bovine serum albumin(essentially free of fatty acids), 2 μl of 20 mg/ml cholesterol and 41 μl of H2 O were mixed together and the resulting mixture was reacted at 37° C. for 15 minutes. 8 μl of [1-^14 C] oleoyl-CoA(0.05 μCi, final concentration of 10 μM) was added to the mixture and the reaction mixture was reacted at 37° C. for 15 minutes.
1 ml of isopropanol-heptane (4:1(v/v)) was added to the mixture to stop the reaction, 0.6 ml of heptane and 0.4 ml of said analysis buffer(5-fold diluted) were added thereto and the resulting mixture was centrifuged at 2,000 g for 2 minutes to obtain the supernatant.
5 ml of scintillation cocktail lipoluma (Lumac Co., U.S.A.) was added to 100 μl of the supernatant obtained above and enzyme activity was determined by detecting the amount of cholesteryl ester in the mixture based on the unit of count per minute (CPM) by using a liquid scintillation counter.
ACAT inhibiting activity was calculated in accordance with the following equation: [formula] wherein the blank composition had the same composition as the above sample but without enzyme and GERI-BP001 or its derivatives, and was reacted at 37° C.; and the control had the same composition as the above sample without GERI-BP001 or its derivatives and was reacted at 37° C. for 15 min.
(Liver microsomes are a subcellular fraction often used to study metabolism.)

Series [2] concerns female ICR mice. The experiment in a line: Toxicity of GERI-BP001 in mice (subcutaneous injection). Format: in vivo, mouse. Particulars: 500 mg/kg. As to the method:
5 female ICR mice weighing 23 g were administered via subcutaneous injection with 500 mg/kg of GERI-BP001.

The test system of series [3] is rats. The experiment in a line: Acute toxic effect in rats. The following applies: dose and route not stated. It is filed as in vivo, rat.
A short description of series [4]: Solubility (physicochemical properties).

In the case of `CC(=O)O[C@H]1CC[C@]2(C)[C@H]3Cc4c(cc(-c5ccc[n+]([O-])c5)oc4=O)O[C@]3(C)CC[C@H]2C1(C)C` [GERI-BP001-C], in series [1], the IC50 lay in the range of 110 to 120 µM.

Regarding `CC(=O)O[C@H]1CC[C@]2(C)[C@H]3C(O)c4c(cc(-c5cccnc5)oc4=O)O[C@]3(C)CC[C@H]2C1(C)C` (stereo partly shown) [GERI-BP001-A], the IC50 in series [1] was 140 to 150 µM.

For the molecule `CCC(=O)O[C@H]1CC[C@]2(C)[C@H]3Cc4c(cc(-c5cccnc5)oc4=O)O[C@]3(C)CC[C@H]2C1(C)C` [GERI-BP001-B], in series [1], the IC50 lay in the range of 70 to 80 µM.

`CC(=O)O[C@H]1CC[C@]2(C)[C@H]3Cc4c(cc(-c5cccnc5)oc4=O)O[C@]3(C)CC[C@H]2C1(C)C` [GERI-BP001]: the IC50 in series [1] is 70 to 80 µM. Moreover, the “acute toxicity (judgement)” value in series [2] (female ICR mice, subcutaneous injection) is on record as “does not cause acute toxicity”. Further, the mortality result in series [2] (female ICR mice, subcutaneous injection, until 4 days after administration) is reported as “none of the mice was dead”. In addition, in series [2] (mouse, in vivo, sc), the activities of mice result is “increased”, the excited state result is given as “an excited state was induced”, the “time after administration at which excited state was induced” value is reported as “about 15 minutes” and the “time after administration at which symptoms disappeared” value is given as “about 2 hours”. In addition, the acute toxic effect entry in series [3] was “acute toxic effect was not found”. The Solubility entry in series [4] (MeOH, CHCl3) is on record as “soluble”. Also, in series [4] (n-hexane, H2O), the Solubility result was “insoluble”.
